Experimental data: patent publication US20120190666A1, “Heteroaryl Compounds as PIKK Inhibitors” (Amgen Inc., priority 2009, published 2012)

Test system: phosphorylation of Akt at Serine 473 in U87 MG cells
Test: pAkt AlphaScreen (U87 cell)
Assay type: cell-based
Conditions: Homo sapiens, U-87 MG, 2 h; pAkt at Serine 473, U87 MG cells, two hours with compound
Method in brief: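 U87 MG cells (5K per well, plated overnight) treated 2 h at 37 °C with compound, 25 μM to 11.9 pM final in 0.5% DMSO. Lysates assayed for Akt Ser473 phosphorylation with SureFire AlphaScreen, incubated overnight at room temperature; IC50 from percent of control.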

Row | Structure (SMILES) | IC50 [nM]
1 | Cc1nc(Nc2ccc(N3CCN(C)CC3)nn2)cc(-c2c(Nc3cc[nH]n3)nc3cccnn23)n1 [Cpd 35, 3-(2-methyl-6-((6-(4-methyl-1-piperazinyl)-3-pyridazinyl)amino)-4-pyrimidinyl)-N-1H-pyrazol-3-ylimidazo[1,2-b]pyridazin-2-amine] | 70
2 | Cc1nc(NCC#N)cc(-c2c(Nc3cc[nH]n3)nc3cccnn23)n1 [Cpd 90] | 20
3 | Cc1nc(N)cc(-c2c(Nc3ccn(C(=O)Nc4cc(F)cc(F)c4)n3)nc3cccnn23)n1 [Cpd 242, 3-((3-(6-amino-2-methyl-4-pyrimidinyl)imidazo[1,2-b]pyridazin-2-yl)amino)-N-(3,5-difluorophenyl)-1H-pyrazole-1-carboxamide] | 80
4 | COCCOc1ccn2c(-c3nc(C)nc(N)n3)c(Nc3cc[nH]n3)nc2c1 [Cpd 185, 3-(4-amino-6-methyl-1,3,5-triazin-2-yl)-7-(2-methoxyethoxy)-N-1H-pyrazol-3-ylimidazo[1,2-a]pyridin-2-amine] | 50
5 | Cc1nc(N)nc(-c2c(Nc3cc[nH]n3)nc3ccc(Nc4ccncc4)cn23)n1 [Cpd 166] | 450
6 | Cc1nc(N)cc(-c2c(Nc3ccn(C(=O)Nc4ccccc4C(F)(F)F)n3)nc3cccnn23)n1 [Cpd 239, 3-((3-(6-amino-2-methyl-4-pyrimidinyl)imidazo[1,2-b]pyridazin-2-yl)amino)-N-(2-(trifluoromethyl)phenyl)-1H-pyrazole-1-carboxamide] | 10
7 | Cc1nc(Nc2ccccc2F)cc(-c2c(Nc3cc[nH]n3)nc3cccnn23)n1 [Cpd 31, 3-(6-((2-fluorophenyl)amino)-2-methyl-4-pyrimidinyl)-N-1H-pyrazol-3-ylimidazo[1,2-b]pyridazin-2-amine] | 790
8 | Cc1cc(Nc2cc[nH]n2)n(-c2cc(N)nc(C)n2)n1 [Cpd 18, 6-(5-(1H-pyrazol-3-ylamino)-3-methyl-1H-pyrazol-1-yl)-2-methylpyrimidin-4-amine] | 710
9 | Cc1nc(Nc2ccc(N3CCOC(C)C3)nn2)cc(-c2c(Nc3cc[nH]n3)nc3cccnn23)n1 (stereo not drawn) [Cpd 140, 3-(2-methyl-6-((6-(2-methyl-4-morpholinyl)-3-pyridazinyl)amino)-4-pyrimidinyl)-N-1H-pyrazol-3-ylimidazo[1,2-b]pyridazin-2-amine] | 90
10 | Cc1nc(N)cc(-c2c(Nc3ccc4cc[nH]c4n3)nc3ccccn23)n1 [Cpd 41, 3-(6-amino-2-methyl-4-pyrimidinyl)-N-1H-pyrrolo[2,3-b]pyridin-6-ylimidazo[1,2-a]pyridin-2-amine] | 400
11 | Cc1nc(N)cc(-n2nc(C(=O)N3CCOCC3)cc2Nc2ccn[nH]2)n1 [Cpd 13, (5-(1H-pyrazol-5-ylamino)-1-(6-amino-2-methylpyrimidin-4-yl)-1H-pyrazol-3-yl)(morpholino)methanone] | 280
12 | Cc1nc(N)cc(-n2nc(C(=O)NC3CC3)cc2Nc2cc[nH]n2)n1 [Cpd 16, 5-(1H-pyrazol-5-ylamino)-1-(6-amino-2-methylpyrimidin-4-yl)-N-cyclopropyl-1H-pyrazole-3-carboxamide] | 350
13 | CSc1cccc(-c2ccc3nc(Nc4cc[nH]n4)c(-c4nc(C)nc(N)n4)n3c2)c1 [Cpd 109, 3-(4-amino-6-methyl-1,3,5-triazin-2-yl)-6-(3-(methylsulfanyl)phenyl)-N-1H-pyrazol-3-ylimidazo[1,2-a]pyridin-2-amine] | 220
14 | Cc1nc(N)nc(-c2c(Nc3cnn(C(=O)Oc4ccccc4)c3)nc3ccccn23)n1 [Cpd 209, phenyl 4-((3-(4-amino-6-methyl-1,3,5-triazin-2-yl)imidazo[1,2-a]pyridin-2-yl)amino)-1H-pyrazole-1-carboxylate] | 110
15 | Cc1nc(N)cc(-c2c(Nc3ccn(C)n3)nc3ccc(-c4cccc(S(C)(=O)=O)c4)cn23)n1 [Cpd 65, 3-(6-amino-2-methyl-4-pyrimidinyl)-N-(1-methyl-1H-pyrazol-3-yl)-6-(3-(methylsulfonyl)phenyl)imidazo[1,2-a]pyridin-2-amine] | 380
16 | Cc1nc(N)cc(-c2c(Nc3cc[nH]n3)nc3cccnn23)n1 [Cpd 7, 3-(6-amino-2-methylpyrimidin-4-yl)-N-(1H-pyrazol-3-yl)imidazo[1,2-b]pyridazin-2-amine] | 20
17 | CNC(=O)c1ccc(-c2ccc3nc(Nc4cc[nH]n4)c(-c4nc(C)nc(N)n4)n3c2)cc1F [Cpd 99, 4-(3-(4-amino-6-methyl-1,3,5-triazin-2-yl)-2-(1H-pyrazol-3-ylamino)imidazo[1,2-a]pyridin-6-yl)-2-fluoro-N-methylbenzamide] | 10

Row | Structure (SMILES) | IC50 [nM]
18 | Cc1nc(N)nc(-c2c(Nc3cc[nH]n3)nc3ccccn23)n1 [Cpd 1, 3-(4-amino-6-methyl-1,3,5-triazin-2-yl)-N-(1H-pyrazol-3-yl)imidazo[1,2-a]pyridin-2-amine] | 20
19 | Cc1nc(N)cc(-c2c(Nc3cccc(N4CCN(C)CC4)c3)nc3cccnn23)n1 [Cpd 151, 3-(6-amino-2-methyl-4-pyrimidinyl)-N-(3-(4-methyl-1-piperazinyl)-phenyl)imidazo[1,2-b]pyridazin-2-amine] | 5380
20 | Cc1nc(N)nc(-c2c(Nc3cc[nH]n3)nc3cc(OCCN4CCCC4)ccn23)n1 [Cpd 188] | 320
21 | Cc1nc(N)cc(-c2c(Nc3ccnn3C(=O)N3CCC3)nc3cccnn23)n1 [Cpd 257, 3-(6-amino-2-methyl-4-pyrimidinyl)-N-(1-(1-azetidinylcarbonyl)-1H-pyrazol-5-yl)imidazo[1,2-b]pyridazin-2-amine] | 1050
22 | Cc1nc(N)nc(-c2c(Nc3cc[nH]n3)nc3ccc(-c4ccc5c(c4)CCNC5=O)cn23)n1 [Cpd 175, 6-(3-(4-amino-6-methyl-1,3,5-triazin-2-yl)-2-(1H-pyrazol-3-ylamino)imidazo[1,2-a]pyridin-6-yl)-3,4-dihydro-1(2H)-isoquinolinone] | 30
23 | COCC(=O)Nc1cc(-c2c(Nc3ccn(C)n3)nc3cccnn23)nc(C)n1 [Cpd 123, 2-methoxy-N-(2-methyl-6-(2-((1-methyl-1H-pyrazol-3-yl)amino)imidazo[1,2-b]pyridazin-3-yl)-4-pyrimidinyl)acetamide] | 150
24 | COCCOc1cnnc(Nc2cc(-c3c(Nc4ccc(NC(C)=O)cc4)nc4cccnn34)nc(C)n2)c1 [Cpd 53, N-(4-((3-(6-((5-(2-methoxyethoxy)-3-pyridazinyl)amino)-2-methyl-4-pyrimidinyl)imidazo[1,2-b]pyridazin-2-yl)amino)phenyl)acetamide] | 10
25 | CNC(=O)c1cc(Nc2ccn[nH]2)n(-c2cc(N)nc(C)n2)n1 [Cpd 14, 5-(1H-pyrazol-5-ylamino)-1-(6-amino-2-methylpyrimidin-4-yl)-N-methyl-1H-pyrazole-3-carboxamide] | 440
26 | Cc1nc(N)nc(-c2c(Nc3cc[nH]n3)nc3ccc(C4=CCN(C(=O)OC(C)(C)C)CC4)cn23)n1 [Cpd 97, tert-butyl 4-(3-(4-amino-6-methyl-1,3,5-triazin-2-yl)-2-(1H-pyrazol-3-ylamino)imidazo[1,2-a]pyridin-6-yl)-3,6-dihydro-1(2H)-pyridinecarboxylate] | 30
27 | Cc1nc(N)cc(-c2c(Nc3ccn(-c4ccccn4)n3)nc3ccccn23)n1 [Cpd 216, 3-(6-amino-2-methyl-4-pyrimidinyl)-N-(1-(2-pyridinyl)-1H-pyrazol-3-yl)imidazo[1,2-a]pyridin-2-amine] | 450
28 | Cc1nc(NC(=O)CC#N)cc(-c2c(Nc3ccn(C)n3)nc3ccccn23)n1 [Cpd 126, 2-cyano-N-(2-methyl-6-(2-((1-methyl-1H-pyrazol-3-yl)amino)imidazo[1,2-a]pyridin-3-yl)-4-pyrimidinyl)acetamide] | 220
29 | Cc1nc(N)nc(-c2c(Nc3cc[nH]n3)nc3ccc(-c4ccc(S(C)(=O)=O)cc4)cn23)n1 [Cpd 344, 3-(4-amino-6-methyl-1,3,5-triazin-2-yl)-6-(4-(methylsulfonyl)phenyl)-N-1H-pyrazol-3-ylimidazo[1,2-a]pyridin-2-amine] | 20
30 | Cc1nc(N)nc(-c2c(Nc3ccn(C(=O)Nc4ccccc4)n3)nc3ccccn23)n1 [Cpd 204, 3-((3-(4-amino-6-methyl-1,3,5-triazin-2-yl)imidazo[1,2-a]pyridin-2-yl)amino)-N-phenyl-1H-pyrazole-1-carboxamide] | 90
31 | Cc1nc(N)cc(-n2nc(C(=O)Nc3cccnc3)cc2Nc2ccn[nH]2)n1 [Cpd 11, 5-(1H-pyrazol-5-ylamino)-1-(6-amino-2-methylpyrimidin-4-yl)-N-(pyridin-3-yl)-1H-pyrazole-3-carboxamide] | 600
32 | Cc1nc(N)nc(-c2c(Nc3ccn(C)n3)nc3ccc(-c4ccc(S(C)(=O)=O)cc4)cn23)n1 [Cpd 354] | 100
33 | Cc1nc(NC(=O)C2CC2)cc(-c2c(Nc3cc[nH]n3)nc3cccnn23)n1 [Cpd 120] | 110
